Laboratory results taken from patent US12201610B2, “Compositions comprising aticaprant” (Janssen Pharmaceuticals, Inc., priority 2022, dated 2025).
Like-named read-outs stand apart in the source and are kept apart here.

Legend:
[1] = test system: subjects with MDD; assay: HAM-A6 total score (Example 6); assay type: in vivo, human; settings: 10 mg; Treatment Week 6; 59 subjects analyzed
From the text: v. To investigate the effect of aticaprant on symptoms of anxiety using the HAM-A and on core symptoms of anxiety using the HAM-A6 subscale.
• (i) Depression: Montgomery-Åsberg Depression Rating Scale (MADRS), Clinical Global Impression-Severity (CGI-S), Symptoms of Major Depressive Disorder Scale (SMDDS), and Self-assessment of treatment experience (SATE) • (ii) Anhedonia: Snaith-Hamilton Pleasure Scale (SHAPS) • (iii) Anxiety: Structured Interview Guide for the Hamilton Anxiety scale (SIGH-A) and HAM-A6 • (iv) Effects on Cognition: The Cognitive and Physical Functioning Questionnaire (CPFQ) • (v) Safety assessments

[2] = Plasma Cmax of aticaprant in subjects with MDD (Example 6); assay type: in vivo; settings: human, oral, 10 mg, 10 mg once daily, read-out: Cmax, Arithmetic Mean (SD)
From the text: vi. To assess the plasma PK of aticaprant in subjects with MDD and explore its relationship with efficacy and safety parameters.
Cmax is defined as maximum plasma concentration of aticaprant. […] Here ‘N’ (number of subjects analyzed) includes the number of subjects evaluable for this endpoint. Here ‘n’ (number analyzed) included all subjects evaluable for specified time point categories.

[3] = test system: subjects with MDD; assay: Treatment-emergent adverse events, full safety analysis set (Example 6); assay type: in vivo, human
[4] = Body weight by treatment group (Example 6); assay type: in vivo, human
Procedure: Treatment with aticaprant as described herein has several advantages over the treatments in the art. […] As used herein, the term “weight gain” refers to an increase in the weight of patient, relative to the weight of the patient before taking aticaprant or the weight of the patient that is assessed at the time of the initial administration of aticaprant. In certain embodiments, the patient may actually see a decrease in overall weight, relative to the weight of the patient before taking aticaprant.
At the lead-in baseline timepoint, the mean weight for subjects in the placebo group was 76.17 kg compared to 78.66 in the aticaprant group. After 6 weeks in the double-blind treatment phase, the mean weight in the placebo group was 75.75 kg compared to 78.57 kg in the aticaprant group. […] This is unexpected because other adjunctive treatments for MDD result in a mean weight increase. See, Thase M, et al. J Clin Psych. 2015: 76(9), 1224-1231; Thase, J Clin Psych. 2015, 76(9): 1232-1240; El Khalili, Int J Neuropsychopharmacol. 2010, 13, 917-932; Marcus, J. Clin. Psychopharmacol. […] Nashville, Tenn, ACNP, 2008; Earley, American College of Neuropsychopharmacology, 2007, Annual Meeting Abstracts (Boca Raton, Fla, Dec. 9-13, 2007). Nashville, TN, ACNP, 2007). See, Table 45.

[5] = test system: subjects with MDD; assay: ASEX sexual functioning score (Example 6); assay type: in vivo, human
From the text: As used herein, the term “decrease in sexual functioning” refers to reducing or lessening of one or more components of the human sex drive, i.e., sexual functioning. In some embodiments, the sexual functioning comprises one or more of sexual drive, sexual arousal, vaginal lubrication, erection, orgasm achievement, or orgasm satisfaction. In other embodiments, the sexual functioning comprises sexual drive. In further embodiments, the sexual functioning comprises vaginal lubrication satisfaction. In further embodiments, the sexual functioning comprises orgasm achievement. In yet other embodiments, the sexual functioning comprises orgasm satisfaction. Desirably, the patient's sexual functioning is assessed at the time of initial administration of aticaprant. Thus, the patient's sexual functioning while taking aticaprant can be compared to the patient's sexual functioning before administration of aticaprant. Sexual functioning may be assessed by using standard scales and techniques such as the Arizona Sexual Experience Scale (ASEX). The ASEX is used to investigate whether aticaprant has a further positive or negative effect on sexual function. The ASEX is 5 item rating scale administered to patients that quantifies sexual drive, sexual arousal, vaginal lubrication or penile erection, ability to reach orgasm and satisfaction. Scores range from 5 to 30, and two different versions of the scale are available (males and females).
Patients had their sexual functioning measured using a standard, well accepted rating scale: ASEX. See, Table 48.

[6] = TEAE in >= 5% of subjects, Treatment Period, Full Safety Analysis Set, aticaprant 10 mg (N = 85), Table 40
[7] = TEAE of Special Interest, Treatment Period, Full Safety Analysis Set, aticaprant 10 mg (N = 85), Table 41
[8] = Treatment Period, Full Safety Analysis Set, aticaprant 10 mg (N = 85)

## Cc1cc(C)cc(C2CCCN2Cc2ccc(Oc3ccc(C(N)=O)cc3F)cc2)c1 (stereo not shown) [aticaprant, 3-fluoro-4-4-2-(3,5-dimethylphenyl)pyrrolidin-1-yl-methylphenoxybenzamide]
[1]
  Change from Treatment Baseline in HAM-A6 Total Score, Arithmetic Mean (SD): −2.73 ± 2.651 scores on a scale
[2]; Week 1, eITT
  Cmax: 32.7 ± 10.9 ng/mL
[2]; Week 3, eITT
  Cmax: 33.5 ± 11.1 ng/mL
[2]; Week 6, eITT
  Cmax: 34.3 ± 11.1 ng/mL
[3]; [6]
  Diarrhea, %: 8%
  Gastrointestinal Disorders, %: 14%
  Headache, %: 12%
  Infections And Infestations, %: 15%
  Nasopharyngitis, %: 6%
  Nervous System Disorders, %: 15%
  Pruritus, %: 6%
  Skin And Subcutaneous Tissue Disorders, %: 7%
  Total no. Subjects with Adverse Events, %: 47%
[3]; [7]
  Abdominal Pain, %: 1.2%
  Diarrhea, %: 8.2%
  Dyspepsia, %: 1.2%
  Gastrointestinal Disorders, %: 10.6%
  Pruritus, %: 5.9%
  Skin And Subcutaneous Tissue Disorders, %: 5.9%
  Total no. Subjects with Adverse Events of Special Interest, %: 15.3%
[3]; [8]
  Subjects with TEAE leading to discontinuation of agent, %: (1.2) %
  Total subjects affected by non-serious adverse events, %: (27.1%)
[3]; Treatment Period, Full Safety Analysis Set, aticaprant 10 mg (N = 85), Table 39
  Subjects with 1 or more TEAE, %: (47.1) %
[3]; Treatment Period, Full Safety Analysis Set, aticaprant 10 mg (N = 85), possible, probable, very likely
  Subjects with drug-related TEAE, %: (23.5) %
[3]; due to diarrhea, nausea, vomiting and headache
  subjects who discontinued during the treatment period due to TEAEs: 1 subject
[3]; full safety analysis set, 40/85 subjects
  subjects with at least one TEAE during the treatment period: 47.1%
[3]; treatment period
  patients with acute cholecystitis: 0 patients
[3]; treatment period, 5/85 subjects
  subjects with pruritus (TEAE of special interest): 5.9%
[3]; treatment period, 7/85 subjects
  subjects with diarrhea (TEAE): 8.2%
[3]; treatment period, 10/85 subjects
  subjects with headache (TEAE): 11.8%
[3]; treatment period, 13/85 subjects
  subjects with TEAEs of special interest: 15.3%
[4]; Lead-in Baseline, n = 85
  Mean weight, mean (SE): 78.66 (1.65) kg
[4]; Screening, n = 85
  Mean weight, mean (SE): 78.42 (1.65) kg
[4]; Withdrawal Baseline, n = 85
  Mean weight, mean (SE): 78.57 (1.71) kg
[4]; after 6 weeks in the double-blind treatment phase
  mean weight: 78.57 kg
[4]; lead-in baseline timepoint
  mean weight: 78.66 kg
[4]; n = 85
  Weight Absolute Change (Withdrawal—Lead-in): -0.09 kg
  Weight Relative % Change: −0.11%
[5]; Baseline, n = 85
  ASEX score: 21.26
[5]; Endpoint, n = 85
  ASEX score: 19.79
[5]; n = 85
  ASEX score Relative % Change: −6.91%
[5]; n = 85, lower score indicates improvement
  ASEX score Absolute Change: −1.47
[5]; to week 6, lower score indicates improvement
  ASEX total score mean change from treatment baseline (SD): −1.5 (4.02) points
